Reference: ChEMBL document CHEMBL1130681, “Synthesis of 5-substituted quinazolinone derivatives and their inhibitory activity in vitro” (Bioorg Med Chem Lett, 1998)

Key:
Type in all cases: functional, cell-based
CCRF-CEM = assay: Concentration required to inhibit CCRF-CEM (human leukemia) cell lines
HT-29 = assay: Concentration required to inhibit HT-29 (human colon adenocarcinoma) cell lines
L1210 = assay: Concentration required to inhibit L1210 (mouse lymphocytic leukemia) cell lines
LY3.7.2C TK-/- cell line = assay: Concentration required to inhibit LY3.7.2C TK-/-(mouse lymphoma, thymidine kinase deficient) cell lines

Compound | IC50 (CCRF-CEM) | IC50 (HT-29) | IC50 (L1210) | IC50 (LY3.7.2C TK-/- cell line)
Cc1ccc2nc(N)nc(O)c2c1Sc1ccc(C(=O)N[C@H](C(=O)O)c2ccccc2)cc1 | 5400 nM | > 20000 nM | 2000 nM | 800 nM
COC(=O)[C@@H](NC(=O)c1ccc(Sc2c(C)ccc3nc(N)nc(O)c23)cc1)c1cccc(O)c1 | 1500 nM | 8400 nM | 2000 nM | 300 nM
Cc1ccc2nc(N)nc(O)c2c1Sc1ccc(C(=O)N[C@H](C(=O)O)c2cccc(O)c2)cc1 | 3400 nM | 17000 nM | 700 nM | 600 nM

These reach a lower IC50 (CCRF-CEM). Values come first.

IC50 (CCRF-CEM) | IC50 (HT-29) | IC50 (L1210) | IC50 (LY3.7.2C TK-/- cell line) | Compound
50 nM | 1200 nM | 500 nM | 700 nM | Cc1ccc2nc(N)nc(O)c2c1Sc1ccc(C(=O)N[C@H](C(=O)O)c2cccc(C(=O)O)c2)cc1
800 nM | 3700 nM | 1100 nM | 1500 nM | Cc1ccc2nc(N)[nH]c(=O)c2c1Sc1ccncc1 [NOLATREXED]
200 nM | 600 nM | 400 nM | 500 nM | COC(=O)[C@@H](NC(=O)c1ccc(Sc2c(C)ccc3nc(N)nc(O)c23)cc1)c1ccccc1
200 nM | 600 nM | 700 nM | 700 nM | COC(=O)c1cccc([C@H](NC(=O)c2ccc(Sc3c(C)ccc4nc(N)nc(O)c34)cc2)C(=O)OC)c1
